# Measured values as given in patent publication US5716993A, “Anthranilic acid derivatives” (Eisai Co., Ltd., priority 1993, dated 1998).
# Target: T1, cGMP-PDE prepared from porcine aorta (Sus scrofa, UniProt A0A287B475)
# T1 construct: The enzyme activity of CGMP-PDE prepared from porcine aorta was determined; from tissue; host or cells: porcine aorta, 100,000×g supernatant, DEAE-Toyopearl 650S fractions
# Assay: Enzyme inhibitory activity using cGMP-PDE prepared from porcine aorta
# Format: biochemical
# Conditions: CaM-independent cGMP-PDE fractions from porcine aorta; 1 μM cGMP substrate, 1 mM EGTA, DMSO 4% or below
# Method: Enzyme Inhibitory activity using cGMP-PDE prepared from porcine aorta
# The enzyme activity of CGMP-PDE prepared from porcine aorta was determined according to the method of Thompson et al. This determination was conducted in the presence of 1 mM EGTA by the use of 1 μM cGMP as the substrate. Each compound according to the present invention was dissolved in DMSO and added to the reaction system to determine the inhibitory activity thereof. The final concentration of DMSO in the reaction system was adjusted to 4% or below.
# The cGMP-PDE was prepared as follows:
# Porcine aorta was cut into fine pieces, followed by the addition of 10 times by volume as much buffer A (20 mM Tris/HCl, 2 mM Mg acetate, 1 mM dithiothreitol, 5 mM EDTA, 1400TIU/1 aprotinin, 10 mg/1 leupeptin, 1 mM benzamidine, 0.2 mM PMSF, pH7.5). The obtained mixture was homogenized and centrifuged at 100,000×g for one hour. The obtained supernatant was placed on a column of DEAE-Toyopearl 650S (a product of Tosoh, Tokyo, Japan), followed by the washing of the column with buffer B (50 mM Tris/HCl, 0.1 mM EGTA, 2 mM Mg acetate, 1 mM Dithiothreitol, 0.2 mM PMSF, pH7.5). The resulting column was subjected to gradient elution with 0.05 to 0.4M sodium chloride to obtain CaM-independent cGMP-PDE fractions.
row,IC50 [nM],Compound
1,5.3,"COc1ccc(CNC(=O)c2cc(Cl)ccc2NC(=O)[C@H]2CC[C@H](C(=O)O)CC2)cc1Cl [Example 112, 2-[(trans-4-Carboxycyclohexanecarbonyl)amino]-5-chloro-N-(3-chloro-4-methoxybenzyl)benzamide]"
2,2.9,"O=C(NCc1ccc2c(c1)OCO2)c1cc(-n2cccn2)ccc1NC(=O)[C@H]1CC[C@H](C(=O)O)CC1 [Example 126, 2-[(trans-4-Carboxycyclohexanecarbonyl)amino]-N-(3,4-methylenedioxybenzyl)-5-(1-pyrazolyl)benzamide]"
3,19.2,"O=C(NCc1ccc2c(c1)OCO2)c1cc(OC(F)(F)F)ccc1NC(=O)[C@H]1CC[C@H](C(=O)O)CC1 [Example 125, 2-[(trans-4-Carboxycyclohexanecarbonyl)amino]-N-(3,4-methylenedioxybenzyl)-5-trifluoromethoxybenzamide]"
4,12.6,"COc1ccc(CNC(=O)c2cc(C#N)c(OC)cc2NC(=O)c2ccncc2)cc1Cl [Example 83, N-(3-Chloro-4-methoxybenzyl)-5-cyano-2-(isonicotinoylamino)-4-methoxybenzamide]"
5,0.4,"COc1ccc(CNC(=O)c2cc(Br)ccc2NC(=O)[C@H]2CC[C@H](C(=O)O)CC2)cc1Cl [Example 113, 5-Bromo-2-[(trans-4-carboxycyclohexanecarbonyl)amino]-N-(3-chloro-4-methoxybenzyl)benzamide]"
6,5,O=C(NCc1ccc2c(c1)OCO2)c1cc(Br)ccc1NC(=O)N1CCC(C(=O)O)CC1 [Example 122]
7,2.4,"COc1ccc(CNC(=O)c2cc(C#N)ccc2NC(=O)N2CCC(O)CC2)cc1Cl [Example 74, 1-[[2-[(3-Chloro-4-methoxybenzyl)carbamoyl]-4-cyanophenyl]carbamoyl]-4-hydroxypiperidine]"
8,5.3,O=C(NCc1ccc2c(c1)OCO2)c1cc(Cl)ccc1NC[C@H]1CC[C@H](C(=O)O)CC1 [Example 47]
9,11.5,"COc1ccc(CNC(=O)c2cc(S(=O)(=O)N(C)C)ccc2NC(=O)[C@H]2CC[C@H](C(=O)O)CC2)cc1Cl [Example 117, 2-[(trans-4-Carboxycyclohexanecarbonyl)amino]-N-(3-chloro-4-methoxybenzyl)-5-dimethylsulfamoylbenzamide]"
10,79.8,"O=C(O)/C=C/C(=O)Nc1ccc(Cl)cc1C(=O)NCc1ccc2c(c1)OCO2 [Example 44, 2-(3-Carboxyacryoyl)amino-5-chloro-N-(3,4-methylenedioxybenzyl)benzamide]"
11,0.9,COc1ccc(CNC(=O)c2cc(Cl)ccc2NC(=O)N2CCC(C(=O)O)CC2)cc1Cl [Example 43]
12,16.6,"O=C(NCc1ccc2c(c1)OCO2)c1cc(Cl)ccc1NC(=O)C1CCCCC1 [Example 19, 5-Chloro-2-[(cyclohexanecarbonyl)amino]-N-(3,4-methylenedioxybenzyl)benzamide]"
13,14.5,COc1ccc(CNC(=O)c2cc(Br)ccc2NC(=O)c2ccncc2)cc1Cl [Example 81]
14,21.7,"O=C(Nc1ccc(Br)cc1C(=O)NCc1ccc2c(c1)OCO2)c1ccncc1 [Example 85, 5-Bromo-2-(isonicotinoylamino)-N-(3,4-methylenedioxybenzyl)benzamide]"
15,2.9,COc1ccc(CNC(=O)c2cc(C#N)c(OC)cc2NC(=O)[C@H]2CC[C@H](C(=O)O)CC2)cc1Cl [Example 116]
16,7.2,"COc1ccc(CNC(=O)c2cc(Br)c(N)cc2NC(=O)[C@H]2CC[C@H](C(=O)O)CC2)cc1Cl [Example 141, 4-Amino-5-bromo-2-[(trans-4-carboxycyclohexanecarbonyl)amino]-N-(3-chloro-4-methoxybenzyl)benzamide]"
17,0.7,"COc1ccc(CNC(=O)c2cc(C#N)ccc2NC(=O)[C@H]2CC[C@H](C(=O)O)CC2)cc1Cl [Example 110, 2-[(trans-4-Carboxycyclohexanecarbonyl)amino]-N-(3-chloro-4-methoxybenzyl)-5-cyanobenzamide]"

row,IC50 [nM],Compound
1,36.8,"COc1cc(NC(=O)[C@H]2CC[C@H](C(=O)O)CC2)c(C(=O)NCc2ccc3c(c2)OCO3)cc1Br [Example 129, 5-Bromo-2-[(trans-4-carboxycyclohexanecarbonyl)amino]-4-methoxy-N-(3,4-methylenedioxybenzyl)benzamide]"
2,28.8,"O=C(Nc1ccc(Cl)cc1C(=O)NCc1ccc2c(c1)OCO2)c1ccncc1 [Example 9, 5-Chloro-N-(3,4-methylenedioxybenzyl)-2-(isonicotinoylamino)benzamide]"
3,20.5,"O=C(NCc1ccc2c(c1)OCO2)c1cc(Cl)ccc1NCc1ccncc1 [Example 33, 5-Chloro-N-(3,4-methylenedioxybenzyl)-2-(4-picolyl)aminobenzamide]"
4,6.7,"O=C(NCc1ccc2c(c1)OCO2)c1cc(Cl)ccc1NC(=O)N1CCC(C(=O)O)CC1 [Example 38, 1-[[4-Chloro-2-[(3,4-methylenedioxybenzyl)carbamoyl]phenyl]carbamoyl]piperidine-4-carboxylic acid]"
5,6.1,"O=C1c2c(NC(=O)[C@H]3CC[C@H](C(=O)O)CC3)ccc(Br)c2CN1Cc1ccc2c(c1)OCO2 [Example 123, 4-Bromo-7-[(trans-4-carboxycyclohexanecarbonyl)amino]-N-(3,4-methylenedioxybenzyl)isoindoline-1-one]"
6,7.7,"COc1cc(CNC(=O)c2cc(Cl)ccc2NC(=O)[C@H]2CC[C@H](C(=O)O)CC2)ccc1Cl [Example 121, 2-[(trans-4-Carboxycyclohexanecarbonyl)amino]-5-chloro-N-(4-chloro-3-methoxybenzyl)benzamide]"
7,11.9,"COc1ccc(CNC(=O)c2cc(C#N)ccc2NC(=O)c2ccncc2)cc1Cl [Example 80, N-(3-Chloro-4-methoxybenzyl)-5-cyano-2-(isonicotinoylamino)benzamide]"
8,2,"COc1ccc(CNC(=O)c2cc(Br)ccc2NC(=O)N2CCC(C(=O)O)CC2)cc1Cl [Example 111, 1-[[4-Bromo-2-[(3-chloro-4-methoxybenzyl)carbamoyl]phenyl]carbamoyl]piperidine-4-carboxylic acid]"
9,18.1,"COc1ccc(CNC(=O)c2cc(C#N)ccc2NC(=O)[C@@H]2CCC(=O)O2)cc1Cl [Example 136, N-(3-Chloro-4-methoxybenzyl)-5-cyano-2-[((S)-5-oxo-2-tetrahydrofurancarbonyl)amino]benzamide]"
10,3.2,"O=C(NCc1ccc2c(c1)OCO2)c1cc(Cl)ccc1NC(=O)[C@H]1CC[C@H](C(=O)O)CC1 [Example 39, 2-(trans-4-Carboxycyclohexanecarbonyl)amino-5-chloro-N-(3,4-methylenedioxybenzyl)benzamide]"
11,4.4,"COc1ccc(CNC(=O)c2cc(C#N)ccc2NC(=O)[C@H]2CC[C@H](O)CC2)cc1Cl [Example 109, N-(3-Chloro-4-methoxybenzyl)-5-cyano-2-[(trans-4-hydroxycyclohexanecarbonyl)amino]benzamide]"
12,21.5,"COc1ccc(CNC(=O)c2cc(Cl)ccc2NC(=O)[C@H]2CC[C@H](C(=O)O)CC2)cc1C#N [Example 120, 2-[(trans-4-Carboxycyclohexanecarbonyl)amino]-5-chloro-N-(3-cyano-4-methoxybenzyl)benzamide]"
13,1.4,"O=C(O)c1ccc(C(=O)Nc2ccc(Cl)cc2C(=O)NCc2ccc3c(c2)OCO3)cc1 [Example 41, 2-(4-Carboxybenzoyl)amino-5-chloro-N-(3,4-methylenedioxybenzyl)benzamide]"
14,0.7,"O=C(NCc1ccc2c(c1)OCO2)c1cc(Br)ccc1NC(=O)[C@H]1CC[C@H](C(=O)O)CC1 [Example 45, 5-Bromo-2-(trans-4-carboxycyclohexanecarbonyl)amino-N-(3,4-methylenedioxybenzyl)benzamide]"
15,24.8,"COc1ccc(CNC(=O)c2cc(Br)c(OC)cc2NC(=O)[C@H]2CC[C@H](C(=O)O)CC2)cc1Cl [Example 115, 5-Bromo-2-[(trans-4-carboxycyclohexanecarbonyl)amino]-N-(8-chloro-4-methoxybenzyl)-4-methoxybenzamide]"
16,1.7,"COc1ccc(CNC(=O)c2cc([N+](=O)[O-])ccc2NC(=O)[C@H]2CC[C@H](C(=O)O)CC2)cc1Cl [Example 114, 2-[(trans-4-Carboxycyclohexanecarbonyl)amino]-N-(3-chloro-4-methoxybenzyl)-5-nitrobenzamide]"
